Assay results as given in US20250352512A2, “C4-S[…] DERIVATIVES AND METHODS OF USING” (priority 2022, published 2025).
Like-named read-outs stand apart in the source and are kept apart here.

Tests used:
5-HT1A receptor = biological target: T1, 5-HT1A receptor (Homo sapiens, UniProt P08908); assay type: cell-based; conditions: for 5-HT1A receptor modulation: comparison of +5-HT1A with -5-HT1A cultures, 4 mM forskolin
T1 construct: host or cells: CHO-K1
T1 sequence (P08908 1-422): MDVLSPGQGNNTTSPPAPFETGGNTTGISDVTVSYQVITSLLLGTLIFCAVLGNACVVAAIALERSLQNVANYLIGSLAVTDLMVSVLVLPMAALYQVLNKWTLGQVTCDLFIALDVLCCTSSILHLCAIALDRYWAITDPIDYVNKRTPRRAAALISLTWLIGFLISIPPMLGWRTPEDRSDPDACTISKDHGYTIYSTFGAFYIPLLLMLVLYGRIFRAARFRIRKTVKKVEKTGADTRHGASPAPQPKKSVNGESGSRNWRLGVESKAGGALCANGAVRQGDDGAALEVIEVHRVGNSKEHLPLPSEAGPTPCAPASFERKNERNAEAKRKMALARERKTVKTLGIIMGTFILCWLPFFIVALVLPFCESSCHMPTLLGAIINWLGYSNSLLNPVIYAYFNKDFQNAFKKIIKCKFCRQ

[1] = Metabolic stability / psilocin release in human AB serum; assay type: in vitro ADME; conditions: 10% human AB serum
Description: (§1) A fundamental evaluation in drug development is the assessment of absorption, distribution, metabolism, excretion, and pharmacokinetics (ADME/PK) (Eddershaw et al., 2000, Drug Discovery Today 5(9): 409-414). […] Drug stability upon exposure to human liver microsomes and liver S9 cellular fractions is a common in vitro assay to approximate in vivo, liver-based drug metabolism (Richardson et al., 2016 Drug Metabolism Letters 10:83-90). First-pass metabolism is also often approximated in vitro using intestinal microsome and cellular S9 fractions (Hatley et al., 2017, Biopharmaceuticals & Drug Disposition, 38(2):155-160). […] Supernatants were analyzed for the presence of candidate prodrugs (parent molecule) and psilocin (the predicted metabolite) using Orbitrap LC-MS (Thermo Scientific) using previously described methods (Menendez-Perdomo et al., 2021, J. Mass Spectrom., 56: e4683). […] Assay concentrations (μM) of both parent ‘prodrug’ molecule and psilocin metabolite, as quantified through LC-MS using routine standard curve procedures, were plotted as functions of assay time (minutes). The metabolism rate (TI/2) was determined from the metabolism curve plot using the one phase decay feature of GraphPad PRISM software (Version 9.2.0). The quantity of parent prodrug at time zero was set as 100%. […]

[2] = Metabolic stability / psilocin release in human liver microsomes; assay type: in vitro ADME; conditions: 2.5 μM, 400 μg/ml HLM, NADPH, 37° C.
Description: as §1

[3] = Stability assay in enzyme-free control buffer; assay type: in vitro ADME; conditions: enzyme-free buffer pH 7.4, 37° C., 2 hours
Description: as §1

[4] = Metabolic stability / psilocin release in human liver S9 fractions; assay type: in vitro ADME; conditions: 2.5 μM, 400 μg/ml HLS9, NADPH, 37° C.
Description: as §1

[5] = biological target: T2, 5-HT2A receptor (5-HT2AR) (Mus musculus, UniProt P35363); test: Drug-induced Head Twitch Response (HTR) in mice; assay type: in vivo; conditions: C57BL/6-Elite mice, i.p. 1 mg/kg, 15-to-30-minute window following administration
T2 construct: tissue Charles River; host or cells: living C57BL/6-Elite mice (neuronal receptor)
T2 sequence (P35363 whole entry): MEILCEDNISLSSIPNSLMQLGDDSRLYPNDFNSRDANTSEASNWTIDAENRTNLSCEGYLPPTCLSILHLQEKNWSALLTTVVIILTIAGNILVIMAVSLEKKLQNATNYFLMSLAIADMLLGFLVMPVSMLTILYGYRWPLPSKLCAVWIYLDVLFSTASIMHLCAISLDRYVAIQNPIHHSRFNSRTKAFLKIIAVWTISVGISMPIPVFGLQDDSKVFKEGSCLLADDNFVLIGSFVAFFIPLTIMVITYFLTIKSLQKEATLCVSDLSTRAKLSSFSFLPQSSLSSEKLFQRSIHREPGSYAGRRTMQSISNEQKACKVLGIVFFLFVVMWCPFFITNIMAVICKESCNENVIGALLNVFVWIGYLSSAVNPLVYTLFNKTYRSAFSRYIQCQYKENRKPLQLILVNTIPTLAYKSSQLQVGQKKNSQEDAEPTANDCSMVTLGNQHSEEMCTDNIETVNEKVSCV

5-HT2A receptor = 5-HT2A receptor (Homo sapiens, UniProt P28223); test: [3H]ketanserin radioligand competition binding assay (SPA); conditions: fixed (1 nM) [3H]ketanserin, membranes containing 5-HT2A
Chain of 5-HT2A receptor (P28223 whole entry): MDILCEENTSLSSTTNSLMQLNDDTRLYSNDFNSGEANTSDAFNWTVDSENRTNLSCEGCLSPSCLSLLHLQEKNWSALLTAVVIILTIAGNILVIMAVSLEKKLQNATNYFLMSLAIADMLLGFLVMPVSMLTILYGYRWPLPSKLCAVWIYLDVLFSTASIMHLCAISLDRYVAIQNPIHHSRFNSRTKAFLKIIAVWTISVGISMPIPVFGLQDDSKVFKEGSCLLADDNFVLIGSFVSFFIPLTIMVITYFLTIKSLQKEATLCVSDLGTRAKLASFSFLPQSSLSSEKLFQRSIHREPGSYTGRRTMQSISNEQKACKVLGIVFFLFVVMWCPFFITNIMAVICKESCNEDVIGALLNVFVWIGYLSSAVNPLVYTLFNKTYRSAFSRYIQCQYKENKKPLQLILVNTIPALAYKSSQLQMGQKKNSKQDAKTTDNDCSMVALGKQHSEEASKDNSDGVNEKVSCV

[6] = +5-HT1A cells stimulated with 4 mM forskolin

SMILES	5-HT1A receptor modulation (5-HT1A receptor)	incidences of Head Twitch Response (HTR) relative to vehicle [5]	other results
CCCCCCOC(=O)Oc1cccc2[nH]cc(CCN(C)C)c12 [B(V)]	suggests no receptor modulation	–	–
CN(C)CCc1c[nH]c2cccc(OP(=O)(O)O)c12 [psilocybin]	–	–	stability and conversion to psilocin in serum [1]: stable in serum with no conversion to psilocin; stability and conversion to psilocin in liver fractions (HLM) [2]: stable in liver fractions with no conversion to psilocin; stability in assay buffer [3]: stability of psilocybin was confirmed in assay buffer; stability and conversion to psilocin in liver fractions (HLS9) [4]: stable in liver fractions with no conversion to psilocin
CCC(=O)OCOc1cccc2c1c(CCN(C)C)cn2C(=O)CC [D(XIX)]	suggests significant receptor modulation	Elevated incidences of HTR	–
CN(C)CCc1c[nH]c2cccc(OC(=O)OCC(Cl)(Cl)Cl)c12 [B(IV)]	suggests no receptor modulation	Elevated incidences of HTR	–
CN(C)CCc1c[nH]c2cccc(O[Si](c3ccccc3)(c3ccccc3)C(C)(C)C)c12 [A(III)]	suggests receptor modulation at higher ligand concentrations	Elevated incidences of HTR	–
CN(C)CCc1c[nH]c2cccc(O)c12 [psilocin, reference compound]	–	–	competition binding at the 5-HT2A receptor (5-HT2A receptor): binding; cAMP levels with increasing doses of ligand (5-HT1A receptor; [6]): reduction in cAMP levels
NCCc1c[nH]c2ccc(O)cc12 [serotonin, reference compound]	–	–	cAMP levels with increasing doses of ligand (5-HT1A receptor): reduction in cAMP levels
N[C@@H](Cc1c[nH]c2ccccc12)C(=O)O [tryptophan, reference compound]	–	–	competition binding at the 5-HT2A receptor (5-HT2A receptor): no binding; cAMP levels with increasing doses of ligand (5-HT1A receptor; [6]): no reduction in cellular cAMP levels
CN(C)CCc1c[nH]c2cccc(OP3(=O)OCC(C)(C)CO3)c12 [F(II)]	reveals receptor modulation	Elevated incidences of HTR	–
